Experimental findings from patent US11958864B2, “Tetracyclic heterocycle compounds useful as HIV integrase inhibitors” (Merck Sharp & Dohme LLC, priority 2021, dated 2024) are described below.

The nature of the data set: Dog pharmacokinetic studies: oral dosing of Compound A or prodrug, plasma Compound A by LC-MS/MS. The format is in vivo, Male Beagle Dogs. To be noted: fasted Beagle dogs, comparison with dosing of Compound A. As for the experimental part:
Male Beagle Dogs (Marshall Farms) were used for the pharmacokinetic studies. Studies were conducted under a protocol approved by the WP-IACUC (Animal Procedure Statement #2018-600787-MAR). Following overnight-fasting, dogs were dosed orally with either Compound A at 10 mg/kg and 25 mg/kg or one of the respective prodrugs at the dose equivalent to 10 mg/kg and 25 mg/kg of Compound A formulated as a suspension in either 0.5% methylcellulose with 0.25% sodium lauryl sulfate or 10% Tween 80-5 mM HCl. Food was returned at 4 hours after dosing. Blood (0.5-mL) was drawn at pre-dose, 0.25, 0.5, 1, 2, 4, 6, 24, 48, 72, 96, and 168 hours post-dosing into EDTA-coated collection tubes containing 25 μL of 2 mM dichlorvos solution in water. The tubes were kept chilled prior to blood collection and throughout plasma separation. The plasma was separated by centrifugation (2 minutes at 10000 g). Plasma samples were immediately frozen and kept at −70° C. until analysis by LC-MS/MS.

Structures are written as SMILES.

Take `COCCOC(=O)OCOc1c2n3c(c(C(=O)NCc4cccc(Cl)c4F)c1=O)CC[C@@H]3[C@@H]1OCCCN1C2=O` [Compound 1, (((11aS,11bR)-3-((3-chloro-2-fluorobenzyl)carbamoyl)-4,6-dioxo-1,2,4,6,9,10,11a,11b-octahydro-8H-[1,3]oxazino[2′,3′:3,4]pyrazino[2,1,6-cd]indolizin-5-yl)oxy)methyl (2-methoxyethyl) carbonate]: the “absorption versus their metabolite, Compound A” value is given as “increase in absorption”. `COC(=O)OCOc1c2n3c(c(C(=O)NCc4cccc(Cl)c4F)c1=O)CC[C@@H]3[C@@H]1OCCCN1C2=O` [Compound 6, (((11aS,11bR)-3-((3-chloro-2-fluorobenzyl)carbamoyl)-4,6-dioxo-1,2,4,6,9,10,11a,11b-octahydro-8H-[1,3]oxazino[2′,3′:3,4]pyrazino[2,1,6-cd]indolizin-5-yl)oxy)methyl methyl carbonate]: the “absorption versus their metabolite, Compound A” value is “increase in absorption”.
